Reference: ChEMBL document CHEMBL3352739, “Comparative in vivo evaluation of polyalkoxy substituted 4H-chromenes and oxa-podophyllotoxins as microtubule destabilizing agents in the phenotypic sea urchin embryo assay” (2014)

How the values were obtained:
[1] = tested on: HOP-62; test: Growth inhibition of human HOP62 cells after 48 hrs by sulforhodamine B assay; type: functional; details: HOP-62, 48 h
[2] = tested on: NCI-H226; test: Growth inhibition of human NCI-H226 cells after 48 hrs by sulforhodamine B assay; type: functional; details: NCI-H226, 48 h
[3] = tested on: NCI-H23; test: Growth inhibition of human NCI-H23 cells after 48 hrs by sulforhodamine B assay; type: functional; details: NCI-H23, 48 h
[4] = tested on: NCI-H322M; test: Growth inhibition of human NCI-H322M cells after 48 hrs by sulforhodamine B assay; type: functional
[5] = tested on: NCI-H460; test: Growth inhibition of human NCI-H460 cells after 48 hrs by sulforhodamine B assay; type: functional; details: NCI-H460, 48 h
[6] = tested on: NCI-H522; test: Growth inhibition of human NCI-H522 cells after 48 hrs by sulforhodamine B assay; type: functional; details: NCI-H522, 48 h
[7] = Growth inhibition of human COLO205 cells after 48 hrs by sulforhodamine B assay; type: functional; details: COLO 205, 48 h
[8] = Growth inhibition of human HCC2998 cells after 48 hrs by sulforhodamine B assay; type: functional; details: HCC 2998, 48 h
[9] = Growth inhibition of human HCT116 cells after 48 hrs by sulforhodamine B assay; type: functional; details: HCT-116, 48 h
[10] = Growth inhibition of human HCT15 cells after 48 hrs by sulforhodamine B assay; type: functional; details: HCT-15, 48 h
[11] = tested on: HT-29; test: Growth inhibition of human HT-29 cells after 48 hrs by sulforhodamine B assay; type: functional; details: HT-29, 48 h
[12] = tested on: KM12; test: Growth inhibition of human KM12 cells after 48 hrs by sulforhodamine B assay; type: functional; details: KM12, 48 h
[13] = tested on: SW-620; test: Growth inhibition of human SW620 cells after 48 hrs by sulforhodamine B assay; type: functional; details: SW-620, 48 h
[14] = tested on: SF-268; test: Growth inhibition of human SF268 cells after 48 hrs by sulforhodamine B assay; type: functional; details: SF-268, 48 h
[15] = Growth inhibition of human SF295 cells after 48 hrs by sulforhodamine B assay; type: functional; details: SF-295, 48 h
[16] = Growth inhibition of human SF539 cells after 48 hrs by sulforhodamine B assay; type: functional; details: SF-539, 48 h
[17] = tested on: SNB-19; test: Growth inhibition of human SNB19 cells after 48 hrs by sulforhodamine B assay; type: functional; details: SNB-19, 48 h
[18] = tested on: SNB-75; test: Growth inhibition of human SNB75 cells after 48 hrs by sulforhodamine B assay; type: functional; details: SNB-75, 48 h
[19] = tested on: M14; test: Growth inhibition of human M14 cells after 48 hrs by sulforhodamine B assay; type: functional; details: M14, 48 h
[20] = tested on: MDA-MB-435; test: Growth inhibition of human MDA-MB-435 cells after 48 hrs by sulforhodamine B assay; type: functional; details: MDA-MB-435, 48 h
[21] = tested on: SK-MEL-5; test: Growth inhibition of human SK-MEL-5 cells after 48 hrs by sulforhodamine B assay; type: functional; details: SK-MEL-5, 48 h
[22] = Growth inhibition of human UACC257 cells after 48 hrs by sulforhodamine B assay; type: functional; details: UACC-257, 48 h
[23] = Growth inhibition of human UACC62 cells after 48 hrs by sulforhodamine B assay; type: functional; details: UACC-62, 48 h
[24] = tested on: IGROV-1; test: Growth inhibition of human IGROV1 cells after 48 hrs by sulforhodamine B assay; type: functional; details: IGROV-1, 48 h
[25] = Growth inhibition of human OVCAR3 cells after 48 hrs by sulforhodamine B assay; type: functional; details: OVCAR-3, 48 h
[26] = Growth inhibition of human OVCAR4 cells after 48 hrs by sulforhodamine B assay; type: functional; details: OVCAR-4, 48 h
[27] = Growth inhibition of human OVCAR5 cells after 48 hrs by sulforhodamine B assay; type: functional; details: OVCAR-5, 48 h
[28] = Growth inhibition of human OVCAR8 cells after 48 hrs by sulforhodamine B assay; type: functional; details: OVCAR-8, 48 h
[29] = Growth inhibition of human NCI-ADR-RES cells after 48 hrs by sulforhodamine B assay; type: functional
[30] = tested on: SK-OV-3; test: Growth inhibition of human SKOV3 cells after 48 hrs by sulforhodamine B assay; type: functional; details: SK-OV-3, 48 h
[31] = tested on: 786-0; test: Growth inhibition of human 786-0 cells after 48 hrs by sulforhodamine B assay; type: functional; details: 786-0, 48 h
[32] = tested on: A498; test: Growth inhibition of human A498 cells after 48 hrs by sulforhodamine B assay; type: functional; details: A498, 48 h
[33] = tested on: ACHN; test: Growth inhibition of human ACHN cells after 48 hrs by sulforhodamine B assay; type: functional
[34] = tested on: CAKI-1; test: Growth inhibition of human CAKI-1 cells after 48 hrs by sulforhodamine B assay; type: functional; details: CAKI-1, 48 h
[35] = Growth inhibition of human RXF393 cells after 48 hrs by sulforhodamine B assay; type: functional; details: RXF 393, 48 h
[36] = tested on: SN12C; test: Growth inhibition of human SN12C cells after 48 hrs by sulforhodamine B assay; type: functional
[37] = tested on: TK-10; test: Growth inhibition of human TK10 cells after 48 hrs by sulforhodamine B assay; type: functional; details: TK-10, 48 h
[38] = Growth inhibition of human UO31 cells after 48 hrs by sulforhodamine B assay; type: functional; details: UO-31, 48 h
[39] = Growth inhibition of human PC3 cells after 48 hrs by sulforhodamine B assay; type: functional; details: PC-3, 48 h
[40] = tested on: DU-145; test: Growth inhibition of human DU145 cells after 48 hrs by sulforhodamine B assay; type: functional; details: DU-145, 48 h
[41] = tested on: MCF7; test: Growth inhibition of human MCF7 cells after 48 hrs by sulforhodamine B assay; type: functional; details: MCF7, 48 h
[42] = tested on: MDA-MB-231; test: Growth inhibition of human MDA-MB-231 cells after 48 hrs by sulforhodamine B assay; type: functional; details: MDA-MB-231, 48 h
[43] = Growth inhibition of human Hs 578T cells after 48 hrs by sulforhodamine B assay; type: functional
[44] = Growth inhibition of human BT549 cells after 48 hrs by sulforhodamine B assay; type: functional; details: BT-549, 48 h
[45] = tested on: T47D; test: Growth inhibition of human T47D cells after 48 hrs by sulforhodamine B assay; type: functional
[46] = tested on: MDA-MB-468; test: Growth inhibition of human MDA-MB-468 cells after 48 hrs by sulforhodamine B assay; type: functional; details: MDA-MB-468, 48 h
[47] = Growth inhibition of human H1299 cells after 48 hrs by sulforhodamine B assay; type: functional; details: NCI-H1299, 48 h
[48] = tested on: Paracentrotus lividus; test: Antimitotic microtubule destabilizing activity in Paracentrotus lividus L embryos assessed as induction of cleavage alteration
[49] = tested on: Paracentrotus lividus; test: Antimitotic microtubule destabilizing activity in Paracentrotus lividus L embryos assessed as induction of cleavage arrest
[50] = tested on: Paracentrotus lividus; test: Antimitotic microtubule destabilizing activity in Paracentrotus lividus L embryos assessed as induction of embryo spinning
[51] = Cytotoxicity against human NCI60 cells; type: functional
[52] = tested on: CCRF-CEM; test: Growth inhibition of human CCRF-CEM cells after 48 hrs by sulforhodamine B assay; type: functional
[53] = tested on: HL-60(TB); test: Growth inhibition of human HL-60(TB) cells after 48 hrs by sulforhodamine B assay; type: functional; details: HL-60, 48 h
[54] = tested on: K562; test: Growth inhibition of human K562 cells after 48 hrs by sulforhodamine B assay; type: functional; details: K562, 48 h
[55] = Growth inhibition of human MOLT4 cells after 48 hrs by sulforhodamine B assay; type: functional; details: MOLT-4, 48 h
[56] = Growth inhibition of human RPMI8226 cells after 48 hrs by sulforhodamine B assay; type: functional; details: RPMI-8226, 48 h
[57] = tested on: SR; test: Growth inhibition of human SR cells after 48 hrs by sulforhodamine B assay; type: functional
[58] = tested on: A549; test: Growth inhibition of human A549/ATCC cells after 48 hrs by sulforhodamine B assay; type: functional; details: A549, 48 h

Work on `COc1cccc(C2C(C#N)=C(N)Oc3cc(OC)ccc32)c1` (stereo not drawn) yielded a GI50 [1] of 41.6 nM, a GI50 [2] of 835 nM and a GI50 [3] of 40 nM. The GI50 [4] was 63.1 nM, the GI50 [5] was 36.4 nM and the GI50 [6] was under 10 nM. For the same compound, the GI50 [7] was 45.2 nM, the GI50 [8] was 51.5 nM and the GI50 [9] was 47.9 nM. It also gave a GI50 [10] of 36.6 nM, a GI50 [11] of 37 nM and a GI50 [12] of 30.3 nM. It also gave a GI50 [13] of 38.1 nM, a GI50 [14] of 73.5 nM and a GI50 [15] of 25.4 nM. The GI50 [16] was 25 nM, the GI50 [17] was 3770 nM and the GI50 [18] was 27 nM. The GI50 [19] was 26.8 nM, the GI50 [20] was under 10 nM and the GI50 [21] was 50.3 nM. For the same compound, the GI50 [22] was 12400 nM, the GI50 [23] was 70.5 nM and the GI50 [24] was 48.2 nM. For the same compound, the GI50 [25] was 27.8 nM, the GI50 [26] was 535 nM and the GI50 [27] was 66.2 nM. It also gave a GI50 [28] of 51.4 nM, a GI50 [29] of 14.9 nM and a GI50 [30] of 34 nM. The GI50 [31] was 50.7 nM, the GI50 [32] was 18.6 nM and the GI50 [33] was 120 nM. The GI50 [34] was 42.6 nM, the GI50 [35] was 26 nM and the GI50 [36] was 69.3 nM. The GI50 [37] was 11800 nM, the GI50 [38] was 57.2 nM and the GI50 [39] was 35.7 nM. For the same compound, the GI50 [40] was 35.1 nM, the GI50 [41] was 17.1 nM and the GI50 [42] was 54.6 nM. It also gave a GI50 [43] of 28.3 nM, a GI50 [44] of 87.2 nM and a GI50 [45] of 43.7 nM. The GI50 [46] was 35 nM, the GI50 [47] was 55 nM and the EC [48] was 0.002 µM. The EC [49] was 0.01 µM, the EC [50] was 0.05 µM and the GI50 [51] was 55 nM. For the same compound, the GI50 [52] was 31.2 nM, the GI50 [53] was 25 nM and the GI50 [54] was 19.7 nM. It also gave a GI50 [55] of 55.7 nM, a GI50 [56] of 37.4 nM and a GI50 [57] of 20.2 nM. The GI50 [58] was 45.2 nM.
